# Data from US20150231236A1, “METHODS FOR TREATING PATIENTS WITH HYPERCHOLESTEROLEMIA THAT IS NOT ADEQUATELY CONTROLLED BY MODERATE-DOSE STATIN THERAPY” (Regeneron Pharmaceuticals, Inc., priority 2014, published 2015).
# How the values were obtained:
# [1] = test system: patients with hypercholesterolemia at high CV risk not adequately controlled with rosuvastatin (10 mg or 20 mg); test: Example 3: randomized, double-blind trial, lipid efficacy of mAb316P add-on to rosuvastatin vs EZE add-on or rosuvastatin dose doubling; format: in vivo, human; settings: for Proportion of Patients Reaching LDL-C goal (%) / LDL-C W24 % change from baseline, LS mean (SE): week 24; for Proportion of Patients Reaching LDL-C goal (%): LDL-C <70 mg/dL very high risk or <100 mg/dL high risk; for LDL-C W24 % change from baseline, LS mean (SE): ITT population, treatment arm as labelled
# Protocol: The present study was a randomized, double-blind, active-comparator, parallel-group study in patients at high CV risk with non-FH or heFH who are not adequately controlled with rosuvastatin (10 mg or 20 mg) with or without other lipid-modifying therapy (LMT) (excluding EZE). The study design is illustrated in FIG. 2. Patients who entered the study were taking either rosuvastatin 10 mg or rosuvastatin 20 mg. The former patients were randomized to 1 of 3 treatment arms (arms 1 to 3); the latter patients were randomized to 1 of 3 treatment arms (arms 4 to 6). The treatment arms are as follows:
# (B) a double-blind treatment period of 24 weeks. […] The patient/caregiver administered subsequent injections outside of the clinic according to the dosing schedule. […] The last dose of daily oral study drugs was administered at week 24.
# The first injection of study drug was administered at the clinical site, as soon as possible after the patient was randomized into the study. The patient was monitored at the clinical site for at least 30 minutes following the first injection. The patient/caregiver administered subsequent injections outside of the clinic, according to the dosing schedule.
# (§1) The primary efficacy endpoint was the percent change in calculated LDL-C from baseline to week 24, which is defined as: 100× (calculated LDL-C value at week 24−calculated LDL-C value at baseline)/calculated LDL-C value at baseline. The baseline calculated LDL-C value was the last LDL-C level obtained before the first double-blind study drug injection. The calculated LDL-C at week 24 was the LDL-C level obtained within the week 24 analysis window and during the main efficacy period. The main efficacy period is defined as the time from the first double-blind study drug injection up to 21 days after the last double-blind study drug injection or up to the upper limit of the week 24 analysis window, whichever comes first.
# Total-C, HDL-C, TG, ApoB, ApoA-1, and Lp(a) were directly measured by a central laboratory. LDL-C was calculated using the Friedewald formula. […] Non-HDL-C was calculated by subtracting HDL-C from the total-C. Ratio ApoB/ApoA-1 was calculated.
# For clarification, the ITT analysis is defined for patients in the ITT population and includes all endpoint assessments in an analysis window, regardless of study treatment dosing status (i.e. includes post-treatment assessments). The on-treatment analysis is defined for patients in the mITT population and includes all endpoint assessments from the first double-blind study drug (capsule or injection, whichever comes first) up to 21 days after the last double-blind study drug injection or 3 days after the last capsule intake, whichever comes first (i.e. includes assessments in the efficacy treatment period).
# [2] = test system: patients with hypercholesterolemia at high CV risk not adequately controlled with atorvastatin (20 mg or 40 mg); test: Example 2: safety, treatment-emergent adverse events in pooled treatment groups; settings: Safety Population, pooled treatment groups
# Protocol: For the pooled data, three treatment groups are formed by combining treatment arms regardless of the atorvastatin doses as follows:
# (2) EZE treatment group: pooling EZE+atorva 20 mg arm and EZE+atorva 40 mg arm;
# [3] = test system: patients with hypercholesterolemia at high CV risk not adequately controlled with rosuvastatin (10 mg or 20 mg); test: Example 3: safety, treatment-emergent adverse events in pooled treatment groups; settings: Safety Population; pooled treatment groups
# [4] = test system: patients with hypercholesterolemia at high CV risk not adequately controlled with atorvastatin (20 mg or 40 mg); test: Example 2: randomized, double-blind trial, lipid efficacy of mAb316P add-on to atorvastatin vs EZE add-on, atorvastatin dose doubling or switch to rosuvastatin; format: in vivo, human; settings: for reduced LDL-C levels by: week 24, add-on mAb316P
# Protocol: The present study was a randomized, double-blind, active-comparator, parallel-group study in patients at high CV risk with non-FH or heFH who are not adequately controlled with atorvastatin (20 mg or 40 mg) with or without other lipid-modifying therapy (LMT) (excluding EZE). The study design is illustrated in FIG. 1. Patients who entered the study were taking either atorvastatin 20 mg or atorvastatin 40 mg. The former patients were randomized to 1 of 3 treatment arms (arms 1 to 3); the latter patients were randomized to 1 of 4 treatment arms (arms 4 to 7). The treatment arms are as follows:
# (1) mAb316P+atorvastatin 20 mg+placebo-EZE; (2) Placebo-mAb316P+atorvastatin 40 mg+placebo-EZE; and (3) Placebo-mAb316P+atorvastatin 20 mg+EZE 10 mg.
# (4) mAb316P+atorvastatin 40 mg+placebo-EZE; (5) Placebo-mAb316P+atorvastatin 80 mg+placebo-EZE; (6). Placebo-mAb316P+rosuvastatin 40 mg+placebo-EZE; and (7) Placebo-mAb316P+atorvastatin 40 mg+EZE 10 mg.
# (B) a double-blind treatment period of 24 weeks. Each patient received a SC injection Q2W (mAb316P or placebo-mAb316P) and was administered (or instructed to take) 2 oral blinded medications daily (a statin [atorvastatin or rosuvastatin] and EZE or placebo-EZE). The first injection of mAb316P or placebo-mAb316P was administered at the clinical site on day 1, after study assessments were completed, and as soon as possible after the patient was randomized into the study. The patient/caregiver administered subsequent injections outside of the clinic according to the dosing schedule. On days where the clinic study visit coincided with dosing, the dose of study drugs (injectable and oral) were administered after all study assessments had been performed and all laboratory samples collected. The last dose of mAb316P or placebo-mAb316P was administered at week 22. The last dose of daily oral study drugs was administered at week 24. At week 12, based on their baseline CV risk, certain patients randomized to mAb316P in a blinded manner, had their dose increased as follows:
# Each patient received a subcutaneous (SC) injection once every two weeks (Q2W) (mAb316P or placebo-mAb316P) and took 2 oral blinded medications daily (a statin [atorvastatin or rosuvastatin] and EZE or placebo-EZE).
# The injectable study treatment was a single SC injection of 1 mL for a 75 mg or 150 mg dose of mAb316P or placebo-mAb316P provided in an auto-injector, administered in the abdomen, thigh, or outer area of the upper arm. The first injection of study drug was administered at the clinical site, as soon as possible after the patient was randomized into the study. The patient was monitored at the clinical site for at least 30 minutes following the first injection. The patient/caregiver administered subsequent injections outside of the clinic, according to the dosing schedule. On days where the clinic study visit coincided with dosing, the dose of study drug was administered after all study assessments have been performed and all laboratory samples collected.
# The dose of mAb316P was increased, in a blinded manner, from 75 mg to 150 mg SC Q2W, starting at week 12, based on baseline CV risk in the following circumstances:
# as §1, with “24 will be” for “24 was”, “period was” for “period is”
# Total-C, HDL-C, TG, ApoB, ApoA-1, and Lp (a) were directly measured by a central laboratory. […]
# [5] = Week 4, baseline rosuvastatin 10 mg
# [6] = Week 8, baseline rosuvastatin 10 mg
# [7] = Week 12, baseline rosuvastatin 10 mg
# [8] = Week 16, baseline rosuvastatin 10 mg
# [9] = Week 24, baseline rosuvastatin 10 mg
# [10] = Week 4, baseline rosuvastatin 20 mg
# [11] = Week 8, baseline rosuvastatin 20 mg
# [12] = Week 12, baseline rosuvastatin 20 mg
# [13] = Week 16, baseline rosuvastatin 20 mg
# [14] = Week 24, baseline rosuvastatin 20 mg
molecule,measurement,setting,value
"O=C1[C@H](CC[C@H](O)c2ccc(F)cc2)[C@@H](c2ccc(O)cc2)N1c1ccc(F)cc1 [EZE, ezetimibe, reference compound]",Proportion of Patients Reaching LDL-C goal (%),[1]; Baseline Rosuvastatin 10 mg,57.2%
same,Proportion of Patients Reaching LDL-C goal (%),[1]; Baseline Rosuvastatin 20 mg,52.2%
same,proportion of patients who reached LDL-C level of <70 mg/dL (1.81 mmol/L) at Week 24,[1]; baseline rosuvastatin 10 mg regimen,43.1%
same,proportion of patients who reached LDL-C level of <70 mg/dL (1.81 mmol/L) at Week 24,[1]; baseline rosuvastatin 20 mg regimen,43.6%
same,General Allergic TEAEs (SMQ Hypersensitivity),[2],5 (5.0%) patients (%)
same,"SOC Injury, poisoning and procedural complications",[2],12 (11.9%) patients (%)
same,SOC Musculoskeletal and connective tissue disorders,[2],13 (12.9%) patients (%)
same,"SOC Neoplasms benign, malignant and unspecified (incl cysts and polyps)",[2],0 patients (%)
same,SOC Nervous system disorders,[2],6 (5.9%) patients (%)
same,TEAEs,[2],65 (64.4%) patients (%)
same,Treatment-emergent SAEs,[2],7 (6.9%) patients (%)
same,Treatment-emergent injection site reactions (ISRs),[2],3 (3.0%) patients (%)
same,Treatment-emergent neurologic disorders,[2],1 (1.0%) patients (%)
same,discontinued study treatment early due to a treatment emergent adverse event (TEAE),[2],4 (4.0%) patients (%)
same,patient deaths,[2],Two
same,Treatment-emergent cardiovascular events adjudicated positively,[2]; ischemia driven coronary revascularization procedure,1 (1.0%) patients (%)
same,General Allergic TEAEs,[3],2 (2.0%) patients (%)
same,SOC General disorders and administration site conditions,[3],8 (7.9%) patients (%)
same,SOC Psychiatric disorders,[3],4 (4.0%) patients (%)
same,"SOC Respiratory, thoracic and mediastinal disorders",[3],2 (2.0%) patients (%)
same,SOC Skin and subcutaneous tissue disorders,[3],5 (5.0%) patients (%)
same,TEAEs,[3],54 (53.5%) patients (%)
same,Treatment-emergent SAEs,[3],8 (7.9%) patients (%)
same,Treatment-emergent cardiovascular events adjudicated positively,[3],1 (1.0%) patients (%)
same,Treatment-emergent neurocognitive disorders,[3],1 (1.0%) patients (%)
same,Treatment-emergent neurologic disorders,[3],3 (3.0%) patients (%)
same,cough,[3],0 patients (%)
same,discontinued study treatment early due to a treatment emergent adverse event,[3],8 (7.9%) patients (%)
same,injection site reactions (ISRs),[3],0 patients (%)
same,LDL-C reductions observed,"[4]; across atorvastatin 20 mg and 40 mg regimens, ezetimibe add-on groups, atorvastatin dose increase groups",20.5-22.6%
same,reduced LDL-C levels by,"[4]; atorvastatin 20 mg regimen, add-on ezetimibe or doubling of atorvastatin dose",20.5%
same,reduced LDL-C levels by,"[4]; atorvastatin 40 mg regimen, add-on ezetimibe, doubling of atorvastatin dose or switch to rosuvastatin 40 mg",22.6%
mAb316P + RSV 10: treatment arm: mAb316P 75/150 mg Q2W + rosuvastatin 10 mg daily,Proportion of Patients Reaching LDL-C goal (%),[1]; Baseline Rosuvastatin 10 mg,84.9%
same,Calculated LDL-C LS mean (SE) Value,"[1]; Baseline, baseline rosuvastatin 10 mg",107.8 (3.8) mg/dL
same,"LDL-C W24 % change from baseline, LS mean (SE)",[1],−50.6%
same,Calculated LDL-C LS mean (SE) Value,[1]; [5],49.9 (3.6) mg/dL
same,"Calculated LDL-C LS mean (SE), % Change from Baseline",[1]; [5],−53.1 (3.2) %
same,"Calculated LDL-C LS mean (SE), Change from Baseline",[1]; [5],−55.3 (3.6)
same,Calculated LDL-C LS mean (SE) Value,[1]; [6],49.4 (4.3) mg/dL
same,"Calculated LDL-C LS mean (SE), % Change from Baseline",[1]; [6],−53.8 (3.8) %
same,"Calculated LDL-C LS mean (SE), Change from Baseline",[1]; [6],−55.9 (4.3)
same,Calculated LDL-C LS mean (SE) Value,[1]; [7],53.9 (4.1) mg/dL
same,"Calculated LDL-C LS mean (SE), % Change from Baseline",[1]; [7],−49.6 (4.1) %
same,"Calculated LDL-C LS mean (SE), Change from Baseline",[1]; [7],−51.3 (4.1)
same,Calculated LDL-C LS mean (SE) Value,[1]; [8],49.2 (4.7) mg/dL
same,"Calculated LDL-C LS mean (SE), % Change from Baseline",[1]; [8],−54.1 (4.7) %
same,"Calculated LDL-C LS mean (SE), Change from Baseline",[1]; [8],−56.1 (4.7)
same,Calculated LDL-C LS mean (SE) Value,[1]; [9],53.0 (4.3) mg/dL
same,"Calculated LDL-C LS mean (SE), % Change from Baseline",[1]; [9],−50.6 (4.2) %
same,"Calculated LDL-C LS mean (SE), Change from Baseline",[1]; [9],−52.2 (4.3)
mAb316P + RSV 20: treatment arm: mAb316P 75/150 mg Q2W + rosuvastatin 20 mg daily,Proportion of Patients Reaching LDL-C goal (%),[1]; Baseline Rosuvastatin 20 mg,66.7%
same,Calculated LDL-C LS mean (SE) Value,"[1]; Baseline, baseline rosuvastatin 20 mg",118.1 (4.5) mg/dL
same,"LDL-C W24 % change from baseline, LS mean (SE)",[1],−36.3%
same,Calculated LDL-C LS mean (SE) Value,[1]; [10],69.9 (3.4) mg/dL
same,"Calculated LDL-C LS mean (SE), % Change from Baseline",[1]; [10],−39.6 (5.2) %
same,"Calculated LDL-C LS mean (SE), Change from Baseline",[1]; [10],−47.1 (3.4)
same,Calculated LDL-C LS mean (SE) Value,[1]; [11],67.4 (4.3) mg/dL
same,"Calculated LDL-C LS mean (SE), % Change from Baseline",[1]; [11],−40.6 (5.7) %
same,"Calculated LDL-C LS mean (SE), Change from Baseline",[1]; [11],−49.6 (4.3)
same,Calculated LDL-C LS mean (SE) Value,[1]; [12],76.1 (4.2) mg/dL
same,"Calculated LDL-C LS mean (SE), % Change from Baseline",[1]; [12],−32.3 (5.2) %
same,"Calculated LDL-C LS mean (SE), Change from Baseline",[1]; [12],−41.0 (4.2)
same,Calculated LDL-C LS mean (SE) Value,[1]; [13],64.5 (4.8) mg/dL
same,"Calculated LDL-C LS mean (SE), % Change from Baseline",[1]; [13],−44.8 (6.2) %
same,"Calculated LDL-C LS mean (SE), Change from Baseline",[1]; [13],−52.6 (4.8)
same,Calculated LDL-C LS mean (SE) Value,[1]; [14],73.5 (5.8) mg/dL
same,"Calculated LDL-C LS mean (SE), % Change from Baseline",[1]; [14],−36.3 (7.1) %
same,"Calculated LDL-C LS mean (SE), Change from Baseline",[1]; [14],−43.5 (5.8)
